Data from ChEMBL document CHEMBL4825697, “Optimization and SAR research at the piperazine and phenyl rings of JNJ4796 as new anti-influenza A virus agents, part 1” (Eur J Med Chem, 2021).

Columns and labels:
Influenza A virus = experiment: Antiviral activity against Oseltamivir resistant Influenza A virus (A/Tianjin-Jinnan/15/2009(H1N1) infected in dog MDCK cells assessed as inhibition of surface glycoprotein hemagglutinin; assay type: functional, organism-based
[1] = Selectivity index, ratio of CC50 for cytotoxicity against dog MDCK cells to IC50 for antiviral activity against Oseltamivir resistant Influenza A virus (A/Tianjin-Jinnan/15/2009(H1N1)) infected in dog MDCK cells; assay type: toxicity, cell-based; conditions: read-out: Selectivity Index

SMILES | IC50 (Influenza A virus) [µM] | selectivity ratio [1]
CC(=O)Nc1ccc2oc(-c3ccnc(C(=O)N4CCN([C@@H](c5ccccc5)c5nnn(C)n5)CC4)c3)nc2c1 | 8.5 | > 23
CC(=O)Nc1ccc2oc(-c3ccnc(C(=O)N4CCN([C@H](c5ccccc5)c5nnn(C)n5)CC4)c3)nc2c1 | 0.05 | 2870
CC(=O)Nc1ccc2oc(-c3ccnc(C(=O)N4CCN([C@H](c5ccc(F)cc5)c5nnn(C)n5)CC4)c3)nc2c1 | 0.06 | > 3330
CC(=O)Nc1ccc2oc(-c3ccnc(C(=O)N4CCN([C@@H](c5ccc(F)cc5)c5nnn(C)n5)CC4)c3)nc2c1 | 6.65 | > 30
CCOC(=O)C1=C[C@@H](OC(CC)CC)[C@H](NC(C)=O)[C@@H](N)C1 [OSELTAMIVIR] | 180 | > 1
NC(=O)c1ncn([C@@H]2O[C@H](CO)[C@@H](O)[C@H]2O)n1 [RIBAVIRIN] | 4.28 | > 46
